Series [1] in a line: Solubility in water and in water-ethanol mixtures. The class given is physicochemical.
Series [2] deals with T1, Pig pancreas trypsin (Sus scrofa, UniProt P00761). Conditions: for comparison purposes; cited from earlier work.
Series [3] in a line: Excitation and emission spectra of substrates and hydrolysis products (Table 1). The class given is physicochemical. As to conditions: 10^-7 M in Tris buffer, pH 7.8.
Series [4] has as its target T1, Pig pancreas trypsin. The experiment in a line: Hydrolysis of substrate by trypsin, Michaelis kinetics. Format: biochemical. On the procedure:
Crystalline Z-Arg-ATC hydrochloride (Seratec): 10^-3 M solution in Tris buffer, pH 8.0+CACl2, 10 mM.
Pig pancreas trypsin (SIGMA T0134): 10^-3 M solution in Tris buffer, pH 8.0+CACl2, 10 mM.
Tris buffer: solution A: 0.2M Tris, i.e. 24.23 g/l+CaCl2, 40 mM, i.e. 5.88 g/l; solution B: 0.1M HCl.
This buffer is prepared by mixing 250 ml of solution A with 268 ml of solution B and by topping up to 1 liter with water.
Acetate buffer: solution A: 0.02M acetic acid; solution B: 0.02M sodium acetate.
This buffer is prepared by mixing volume by volume solutions A and B to obtain a buffer at pH 4.75.
Aqueous 1.17N perchloric acid solution (1/10 dilution of pure acid).
The following substrate concentration range was prepared in tubes: 0-0.2-0.5-1-2-5-10×10^-4 M (final concentration).
To each tube was added a concentration of 6.67 μg/ml of trypsin, everything being dissolved in the Tris buffer pH 8.0+CaCl2, 10 mM and at ambient temperature. The enzyme is added at time 0. After 2 minutes, 250 μl are removed from each tube and poured into tubes containing 250 μl of 1.17N perchloric acid and 500 μl of water. The tubes are centrifuged and then the solution is diluted to 1/250 in the acetate buffer. The same operation is repeated at 17 min. The fluorescence intensity is measured at 380/490nm. The difference of the intensities at 17 and 2 min constitutes the signal.
The corresponding ATC concentration is calculated compared with a calibration range from 5×10^-9 to 2×10^-7 M.
This was followed by the determination of Km, Vm, kcat and the ratio kcat/Km. The results obtained are given in table 6, which also gives for comparison purposes the values obtained with Z-L-Arg-AMC and Bz DL Arg-AMC and Bz -L-Arg-AMC.

The nature of series [5]: Excitation and emission spectra of ATC derivatives (Table 4). The class given is physicochemical. Conditions: 10^-7 M, Z-Arg-ATC in 50 mM Tris pH 8, 10 mM CaCl2. On the procedure: The excitation and emission spectra of ATC and Z-Arg-ATC were plotted on the basis of 10^-7 M solutions in the 50 mM Tris buffer at pH 8 containing 10 mM of CaCl2. The maxima obtained are indicated in table 4 with the corresponding maxima of Leu-ATC.

Series [6] concerns the target T1, Pig pancreas trypsin. Kind of series: Determination of trypsin, analytical characteristics. The class given is biochemical. As for the experimental part:
Six calibration ranges containing a final enzyme concentration of 0-0.42-0.84-1.67-3.33-6.67 μg/ml were prepared. Each calibration curve was determined by linear regression. The mean standard deviation is 2.45×10^-3 ±0.003×10^-3 for the gradient and 4.80×10^-3 ±2.53×10^-3 for the intercept The linearity test is significant at the 5% threshold (W=0.245). The quantification limit, calculated by the ratio 3σb /a is 0.05 μg/ml. The repeatability, evaluated by the variation coefficient, is 9.4% at 0.42 μg/ml, 5.9% at 0.84 μg/ml and 1.3% at 6.67 μg/ml.

A further series has as its system Leucine aminopeptidase. As to conditions: known substrates, for comparison; medium with organic solvent; cited from earlier work.
[7] abbreviates: water, read-out: Solubility in water.
[8] abbreviates: enzyme 0-6.67 μg/ml, linear regression.

We go through eight compounds from US5342970A, “Hydrosoluble coumarin derivatives, their preparation and their use as an enzyme substrate or for the preparation of such substrates” (priority 1991, dated 1994).

Molecules are shown by their SMILES. ≈ marks a conversion by molar mass, not a printed value. Where “and” joins values, the source holds several entries; their conditions need not be identical. Identical values can stand only once. Counter-ions that a name gives are not always drawn. Like-named read-outs stand apart in the source and are kept apart here.

The solubility is the dissolved amount per volume that the medium holds. What is called Km is the substrate concentration at which the rate is half of its maximum. As a reminder, the kcat is the number of substrate molecules converted per active site and unit of time at saturation. The term kcat/Km denotes the turnover number divided by the Michaelis constant.

T1 sequence (P00761 9-231): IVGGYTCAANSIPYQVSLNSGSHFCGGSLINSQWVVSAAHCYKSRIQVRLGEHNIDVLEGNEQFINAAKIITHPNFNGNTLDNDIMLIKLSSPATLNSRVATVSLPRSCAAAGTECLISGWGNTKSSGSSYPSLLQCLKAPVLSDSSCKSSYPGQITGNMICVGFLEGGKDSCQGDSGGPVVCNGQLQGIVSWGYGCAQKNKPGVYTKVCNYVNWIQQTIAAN

For `COCCOCCOCc1cc(=O)oc2cc(O)ccc12` [Compound 10, 7-hydroxy-4-(2',5',8'-trioxanonyl)coumarin], the solubility in series [1] (water-ethanol 90:10, organic solvent or mixture, read-out: Solubility in the water-ethanol mixture (90:10)) was determined as 7000 µg/mL (≈ 23.8 mM); in series [1] (setting [7]), 1000 µg/mL (≈ 3.4 mM).
Turning to `COCCOCCOCc1cc(=O)oc2c3c4c(cc12)CCCN4CCC3` [Compound 7, 2,3,6,7-tetrahydro-9-(2',5',8'-trioxanonyl)-1H, 5H, 11H-(1)-benzopyrano-(6,7,8-ij)-quinolizinone-11], the solubility in series [1] (ethanol:water 30:70, organic solvent or mixture, read-out: Solubility in ethanol:water mixture (30:70)) came to 3000 µg/mL (≈ 8.03 mM); in series [1] (setting [7]), 200 µg/mL (≈ 0.536 mM).
For `Cc1cc(=O)oc2cc(NC(=O)C(CCCNC(=N)N)NC(=O)c3ccccc3)ccc12` (racemic) [Bz--DL--Arg--AMC], at Pig pancreas trypsin [2], the Km is 250 µM, the kcat was 0.20 s⁻¹ and the kcat/Km is 800 M⁻¹ s⁻¹.
Regarding `N=C(N)NCCC[C@H](NC(=O)CNC(=O)CN)C(=O)Nc1ccc2c(CS(=O)(=O)O)cc(=O)oc2c1` [GlyGly Arg AMCS, reference compound], in series [3], the “Maximum excitation wavelength, substrate” value amounted to 336 nm and the “Maximum fluorescence wavelength, substrate” value was 409 nm.
`Cc1cc(=O)oc2cc(NC(=O)[C@H](CCCNC(=N)N)NC(=O)OCc3ccccc3)ccc12` [Z--L--Arg--AMC]: at Pig pancreas trypsin [2], the Km was 200 µM, the kcat is 0.89 s⁻¹ and the kcat/Km is 4500 M⁻¹ s⁻¹.
For `COCCOCCOCc1cc(=O)oc2cc(NC(=O)[C@H](CCCNC(=N)N)NC(=O)OCc3ccccc3)ccc12` [Compound 14, N-carbobenzyloxy-L-arginyl-4-(2',5',8'-trioxanonyl)-7-coumarinylamide hydrochloride], the Vm on Pig pancreas trypsin [4] (Tris buffer pH 8.0 + CaCl2 10 mM, ambient temperature) was 474 nmole/min/mg Ez. In addition, the ATC hydrolysis solution on Pig pancreas trypsin [4] (substrate 0.2×10^-4 M) was 0.224 µM/min; on Pig pancreas trypsin [4] (substrate 0.5×10^-4 M), 0.467 µM/min; at Pig pancreas trypsin [4] (substrate 1×10^-4 M), 1.03 µM/min; on Pig pancreas trypsin [4] (substrate 2×10^-4 M), 1.81 µM/min; on Pig pancreas trypsin [4] (substrate 5×10^-4 M), 2.36 µM/min; at Pig pancreas trypsin [4] (substrate 10×10^-4 M) it was 2.57 µM/min. Also, the ATC working solution is 3.36 nM at Pig pancreas trypsin [4] (substrate 0.2×10^-4 M); 7.00 nM on Pig pancreas trypsin [4] (substrate 0.5×10^-4 M); 15.4 nM at Pig pancreas trypsin [4] (substrate 1×10^-4 M); 27.1 nM at Pig pancreas trypsin [4] (substrate 2×10^-4 M); 35.4 nM on Pig pancreas trypsin [4] (substrate 5×10^-4 M); 38.6 nM on Pig pancreas trypsin [4] (substrate 10×10^-4 M). Besides, the “IF(17)-IF(2)” value on Pig pancreas trypsin [4] (substrate 0.2×10^-4 M) was 3.7; on Pig pancreas trypsin [4] (substrate 0.5×10^-4 M) it was 7.7; on Pig pancreas trypsin [4] (substrate 1×10^-4 M), 16.9; on Pig pancreas trypsin [4] (substrate 2×10^-4 M), 29.8; on Pig pancreas trypsin [4] (substrate 5×10^-4 M), 38.9; at Pig pancreas trypsin [4] (substrate 10×10^-4 M) it was 42.4. Further, the “affinity and activity compared with Bz-DL-Arg-AMC” value at Pig pancreas trypsin [4] (words) is “comparable with Bz-DL-Arg-AMC”. Besides, in series [5], the “excitation maximum, substrate” value is on record as 355 nm. Also, the “fluorescence maximum, substrate” value in series [5] (hydrochloride) is 415 nm and 450 nm. For the same compound, the “repeatability (variation coefficient)” value was determined as 9.4% on Pig pancreas trypsin [6] (at 0.42 μg/ml enzyme), 5.9% at Pig pancreas trypsin [6] (at 0.84 μg/ml enzyme) and 1.3% at Pig pancreas trypsin [6] (at 6.67 μg/ml enzyme). For the same compound, the “gradient of calibration curve” value on Pig pancreas trypsin [6] (setting [8]) was 2.45×10^-3 ±0.003×10^-3. For the same compound, the “intercept of calibration curve” value at Pig pancreas trypsin [6] (setting [8]) is on record as 4.80×10^-3 ±2.53×10^-3. The quantification limit at Pig pancreas trypsin [6] (trypsin, ratio 3σb/a) amounted to 0.05 µg/mL. Moreover, the “detection limit for trypsin compared with substrates derived from AMC” value on Pig pancreas trypsin [6] (words) is listed as “of the same order of magnitude as that obtained with substrates derived from AMC”.
`CC(C)C[C@H](N)C(=O)Nc1ccc2ccccc2c1` [Leu-βnaphthylamide]: in the series on Leucine aminopeptidase, the Km was 150 µM and the Vm is given as 5.5 μmole/mg Ez/min.
For the compound `Cc1cc(=O)oc2cc(NC(=O)[C@H](CCCNC(=N)N)NC(=O)c3ccccc3)ccc12` [Bz--L--Arg--AMC], at Pig pancreas trypsin [2], the Km is 110 µM, the kcat is 0.42 s⁻¹ and the kcat/Km was 3800 M⁻¹ s⁻¹.
